From patent US20160030530A1, “SULFORAPHANE/SULFORAPHANE PRECURSOR AND PHYTOSTEROL/PHYTOSTANOL COMPOSITIONS” (NUTRAMAX LABORATORIES, INC., priority 2013, published 2016)

What was measured:
chondrocytes = conditions: IL-1β-induced NF-κB pathway; cited from earlier work
myrosinase [1] = test: Equimolar conversion of glucoraphanin to sulforaphane, role of ascorbic acid in modulating myrosinase activity; format: biochemical, broccoli; conditions: control sample, without ascorbic acid
Description: A two-part experiment was conducted to further elucidate the role of ascorbic acid in modulating myrosinase activity. […] A control sample contained no ascorbic acid, and the enzymatic conversion proceeded unassisted by a co-factor. PART 1. […] PART 2. While keeping the amount of broccoli seed extract fixed at 250 mg, the concentration of ascorbic acid was varied from 0.4 mmol/Liter to 3.8 mmol/Liter. The table below presents glucoraphanin and sulforaphane expressed in μmoles.

[2] = tested on: broccoli sprout-derived myrosinase; test: Consumption of glucoraphanin as a function of the ascorbic acid concentration (hydrolysis by myrosinase); format: biochemical
Description: About 250 mg of broccoli seed extract containing about 12% (w/w) glucoraphanin were subjected to hydrolysis by a fixed concentration of broccoli sprout-derived myrosinase in the presence of variable concentration of ascorbic acid, ranging from 0 to 600 μmoles/Liter. The reaction mixtures were thermostated at 38° C.; aliquots were withdrawn every 15 minutes for 60 minutes, and concentration of glucoraphanin determined chromatographically. The rate of glucoraphanin consumption was interpreted as the rate its conversion to sulforaphane. Graphical representation of glucoraphanin content reduction as a function of increasing ascorbic acid concentration results in a series of linear plots; the slopes of the linear regression lines reflect the rate of glucoraphanin consumption, in μmoles/minute. It is apparent that in the presence of 600 μmoles/Liter concentration of ascorbic acid, the reaction rate increased 13-fold relative to that which proceeded in the absence of modulatory effects of ascorbic acid.

myrosinase [3] = test: Conversion of glucoraphanin to sulforaphane in the presence of Simulated Intestinal Fluid; format: biochemical, broccoli; conditions: 0.25 to 1.00 mmol/Liter ascorbic acid, 38° C., 2 hours
Description: Simulated Intestinal Fluid (SIF) powder, a commercially supplied concentrate closely approximating the human intestinal content in terms of composition, pH and ionic strength, was used. The experiment utilized a USP Dissolution Apparatus 2 (paddles), where into six dissolution vessels 500 mL of Simulated Intestinal Fluid was dispensed, along with 150 mg of freeze-dried broccoli sprout powder as a source of myrosinase. In vessels 1-4, the concentration of ascorbic acid was varied from 0.25 to 1.00 mmol/Liter; in vessel 5, in addition to 1 mmol/Liter ascorbic acid, 3.125 g of pancreatin (8×USP) was suspended; in vessel 6, in addition to 1 mmol/Liter ascorbic acid, and 3.125 g of pancreatin (8×USP), a doubled amount of freeze-dried broccoli sprout powder (300 mg) was added. After vessels were brought to 38° C., 250 mg of glucoraphanin-rich (12%, w/w) broccoli seed extract was added to each, and the resulting suspensions were stirred at 75 RPM for 2 hours. Aliquots were withdrawn every 15 minutes, and assayed for sulforaphane.

For CC[C@H](/C=C/[C@@H](C)[C@H]1CC[C@H]2[C@@H]3CC=C4C[C@@H](O)CC[C@]4(C)[C@H]3CC[C@]12C)C(C)C [stigmasterol, 3β-stigmasta-5,22,-dien-3-ol], the “Pro-inflammatory and matrix degradation mediators (MMP-3, MMP-13, ADAMTS-4, PGE2)” value (chondrocytes) is listed as “inhibits several pro-inflammatory and matrix degradation mediators”.
With C[S+]([O-])CCCC/C(=N\OS(=O)(=O)O)S[C@@H]1O[C@H](CO)[C@@H](O)[C@H](O)[C@H]1O (stereo partly drawn) [glucoraphanin, 4-methylsulfinylbutyl glucosinolate] the “Conversion of glucoraphanin to sulforaphane (amount consumed versus amount produced)” value (myrosinase [1]) was “equimolar conversion of glucoraphanin to sulforaphane”.
In the case of O=C1O[C@H]([C@@H](O)CO)C(O)=C1O [Ascorbic Acid, ascorbic acid], the “Slope (rate of glucoraphanin consumption)” value ([2]; 0 μM ascorbic acid, linear regression 0-60 min) is reported as -0.09293 µmol/min, the “Glucoraphanin (GR) content” value ([2]; 0 μM ascorbic acid, time 15 min, 38° C.) is reported as 92.24 µmol and the “Glucoraphanin (GR) content” value ([2]; 0 μM ascorbic acid, time 30 min, 38° C.) is reported as 90.71 µmol. For the same compound, the “Glucoraphanin (GR) content” value ([2]; 0 μM ascorbic acid, time 45 min, 38° C.) was 89.44 µmol, the “Glucoraphanin (GR) content” value ([2]; 0 μM ascorbic acid, time 60 min, 38° C.) was 87.79 µmol and the “Increase of reaction rate relative to absence of ascorbic acid” value ([2]; 600 μmoles/Liter ascorbic acid, 38° C.) was 13 fold. The “Yield of sulforaphane versus ascorbic acid concentration” value (myrosinase [3]) was “direct correlation between larger yield of sulforaphane and higher concentrations of ascorbic acid”.
